Source: ChEMBL document CHEMBL4507287, “Data for DCP probe MRL-650” (2021)

Tests used:
[1] = system: Tyrosine-protein kinase ABL1 (Homo sapiens), P00519 [E255K]; settings: Compound concentration 1000.0 nM
[2] = system: Tyrosine-protein kinase ABL1 (Homo sapiens), P00519 [F317I]; settings: Compound concentration 1000.0 nM
[3] = system: Tyrosine-protein kinase ABL1 (Homo sapiens), P00519 [T315I]; settings: Compound concentration 1000.0 nM
[4] = target: RAC-beta serine/threonine-protein kinase (Homo sapiens) (UniProt P31751); settings: Compound concentration 1000.0 nM
[5] = target: Ankyrin repeat and protein kinase domain-containing protein 1 (Homo sapiens) (UniProt Q8NFD2); settings: Compound concentration 1000.0 nM
[6] = target: Tyrosine-protein kinase receptor UFO (Homo sapiens) (UniProt P30530); settings: Compound concentration 1000.0 nM
[7] = target: Bone morphogenetic protein receptor type-1B (Homo sapiens) (UniProt O00238); settings: Compound concentration 1000.0 nM
[8] = target: Tyrosine-protein kinase BTK (Homo sapiens) (UniProt Q06187); settings: Compound concentration 1000.0 nM
[9] = target: Serine/threonine-protein kinase Chk1 (Homo sapiens) (UniProt O14757); settings: Compound concentration 1000.0 nM
[10] = target: Dual specificity protein kinase CLK1 (Homo sapiens) (UniProt P49759); settings: Compound concentration 1000.0 nM
[11] = target: Macrophage colony-stimulating factor 1 receptor (Homo sapiens) (UniProt P07333); settings: Compound concentration 1000.0 nM
[12] = target: Casein kinase I isoform gamma-1 (Homo sapiens) (UniProt Q9HCP0); settings: Compound concentration 1000.0 nM
[13] = target: Serine/threonine-protein kinase DCLK2 (Homo sapiens) (UniProt Q8N568); settings: Compound concentration 1000.0 nM
[14] = target: Dual specificity tyrosine-phosphorylation-regulated kinase 2 (Homo sapiens) (UniProt Q92630); settings: Compound concentration 1000.0 nM
[15] = system: Epidermal growth factor receptor (Homo sapiens), P00533 [UNDEFINED MUTATION]; settings: Compound concentration 1000.0 nM
[16] = target: Ephrin type-A receptor 4 (Homo sapiens) (UniProt P54764); settings: Compound concentration 1000.0 nM
[17] = target: Mitogen-activated protein kinase 15 (Homo sapiens) (UniProt Q8TD08); settings: Compound concentration 1000.0 nM
[18] = target: Vascular endothelial growth factor receptor 1 (Homo sapiens) (UniProt P17948); settings: Compound concentration 1000.0 nM
[19] = system: Receptor-type tyrosine-protein kinase FLT3 (Homo sapiens), P36888 [K663Q]; settings: Compound concentration 1000.0 nM
[20] = system: Receptor-type tyrosine-protein kinase FLT3 (Homo sapiens), P36888 [R834Q]; settings: Compound concentration 1000.0 nM
[21] = system: eIF-2-alpha kinase GCN2 (Homo sapiens), Q9P2K8 [S808G]; settings: Compound concentration 1000.0 nM
[22] = target: Homeodomain-interacting protein kinase 1 (Homo sapiens) (UniProt Q86Z02); settings: Compound concentration 1000.0 nM
[23] = target: Mitogen-activated protein kinase kinase kinase kinase 2 (Homo sapiens) (UniProt Q12851); settings: Compound concentration 1000.0 nM
[24] = target: Serine/threonine-protein kinase MARK2 (Homo sapiens) (UniProt Q7KZI7); settings: Compound concentration 1000.0 nM
[25] = target: Myosin light chain kinase, smooth muscle (Homo sapiens) (UniProt Q15746); settings: Compound concentration 1000.0 nM
[26] = target: Serine/threonine-protein kinase 38-like (Homo sapiens) (UniProt Q9Y2H1); settings: Compound concentration 1000.0 nM
[27] = target: Serine/threonine-protein kinase Nek10 (Homo sapiens) (UniProt Q6ZWH5); settings: Compound concentration 1000.0 nM
[28] = target: Serine/threonine-protein kinase Nek2 (Homo sapiens) (UniProt P51955); settings: Compound concentration 1000.0 nM
[29] = target: Serine/threonine-protein kinase Nek9 (Homo sapiens) (UniProt Q8TD19); settings: Compound concentration 1000.0 nM
[30] = target: Cyclin-dependent kinase 16 (Homo sapiens) (UniProt Q00536); settings: Compound concentration 1000.0 nM
[31] = target: Serine/threonine-protein kinase pim-2 (Homo sapiens) (UniProt Q9P1W9); settings: Compound concentration 1000.0 nM
[32] = target: Protein kinase C eta type (Homo sapiens) (UniProt P24723); settings: Compound concentration 1000.0 nM
[33] = target: Serine/threonine-protein kinase D2 (Homo sapiens) (UniProt Q9BZL6); settings: Compound concentration 1000.0 nM
[34] = target: Protein-tyrosine kinase 2-beta (Homo sapiens) (UniProt Q14289); settings: Compound concentration 1000.0 nM
[35] = system: Proto-oncogene tyrosine-protein kinase receptor Ret (Homo sapiens), P07949 [V804M]; settings: Compound concentration 1000.0 nM
[36] = target: Ribosomal protein S6 kinase alpha-5 (Homo sapiens) (UniProt O75582); settings: Compound concentration 1000.0 nM
[37] = target: Serine/threonine-protein kinase Sgk2 (Homo sapiens) (UniProt Q9HBY8); settings: Compound concentration 1000.0 nM
[38] = target: SRSF protein kinase 1 (Homo sapiens) (UniProt Q96SB4); settings: Compound concentration 1000.0 nM
[39] = target: Serine/threonine-protein kinase 16 (Homo sapiens) (UniProt O75716); settings: Compound concentration 1000.0 nM
[40] = target: TGF-beta receptor type-1 (Homo sapiens) (UniProt P36897); settings: Compound concentration 1000.0 nM
[41] = target: NT-3 growth factor receptor (Homo sapiens) (UniProt Q16288); settings: Compound concentration 1000.0 nM
[42] = target: Serine/threonine-protein kinase 32C (Homo sapiens) (UniProt Q86UX6); settings: Compound concentration 1000.0 nM
[43] = target: Tyrosine-protein kinase ZAP-70 (Homo sapiens) (UniProt P43403); settings: Compound concentration 1000.0 nM
[44] = target: 5-hydroxytryptamine receptor 1D (Homo sapiens) (UniProt P28221); settings: Compound concentration 10.0 uM
[45] = target: D(4) dopamine receptor (Homo sapiens) (UniProt P21917); settings: Compound concentration 10.0 uM

Serine/threonine-protein kinase 16 (Homo sapiens), sequence (O75716 whole entry): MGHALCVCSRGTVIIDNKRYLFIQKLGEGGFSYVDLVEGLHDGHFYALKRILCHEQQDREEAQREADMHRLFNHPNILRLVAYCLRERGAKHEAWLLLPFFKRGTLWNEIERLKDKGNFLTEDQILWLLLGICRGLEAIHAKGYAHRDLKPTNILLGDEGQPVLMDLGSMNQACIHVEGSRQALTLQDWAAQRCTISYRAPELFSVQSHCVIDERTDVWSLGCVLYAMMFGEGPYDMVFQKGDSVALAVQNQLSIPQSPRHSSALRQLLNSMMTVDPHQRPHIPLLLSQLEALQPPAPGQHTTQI
TGF-beta receptor type-1 (Homo sapiens), sequence (P36897 whole entry): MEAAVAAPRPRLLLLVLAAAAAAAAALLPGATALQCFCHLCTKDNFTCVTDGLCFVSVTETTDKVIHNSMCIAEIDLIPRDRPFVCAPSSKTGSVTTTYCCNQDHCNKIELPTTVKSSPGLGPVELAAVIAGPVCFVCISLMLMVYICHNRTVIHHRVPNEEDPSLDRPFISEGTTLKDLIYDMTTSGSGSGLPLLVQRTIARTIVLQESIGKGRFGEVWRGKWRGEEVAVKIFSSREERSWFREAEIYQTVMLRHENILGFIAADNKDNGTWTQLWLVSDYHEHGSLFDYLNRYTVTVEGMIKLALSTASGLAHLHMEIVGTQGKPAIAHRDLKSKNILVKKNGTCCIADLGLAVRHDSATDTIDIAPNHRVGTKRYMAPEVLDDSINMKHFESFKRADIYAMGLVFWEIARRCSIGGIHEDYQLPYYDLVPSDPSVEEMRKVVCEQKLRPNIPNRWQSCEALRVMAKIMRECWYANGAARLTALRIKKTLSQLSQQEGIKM
Serine/threonine-protein kinase 38-like (Homo sapiens), sequence (Q9Y2H1 2-464 limits assumed): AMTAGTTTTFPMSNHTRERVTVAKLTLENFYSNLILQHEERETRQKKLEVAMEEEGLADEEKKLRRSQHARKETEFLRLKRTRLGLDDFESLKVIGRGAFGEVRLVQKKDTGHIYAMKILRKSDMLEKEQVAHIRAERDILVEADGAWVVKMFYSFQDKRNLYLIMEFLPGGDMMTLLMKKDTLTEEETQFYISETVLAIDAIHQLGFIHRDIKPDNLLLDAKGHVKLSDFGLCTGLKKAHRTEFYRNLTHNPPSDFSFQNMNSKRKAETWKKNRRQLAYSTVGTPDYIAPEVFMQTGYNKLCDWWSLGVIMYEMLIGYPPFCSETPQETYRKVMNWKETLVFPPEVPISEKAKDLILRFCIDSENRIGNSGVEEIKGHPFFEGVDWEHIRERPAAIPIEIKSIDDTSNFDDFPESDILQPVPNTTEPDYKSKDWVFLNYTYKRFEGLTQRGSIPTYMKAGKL
Serine/threonine-protein kinase Sgk2 (Homo sapiens), sequence (Q9HBY8 whole entry): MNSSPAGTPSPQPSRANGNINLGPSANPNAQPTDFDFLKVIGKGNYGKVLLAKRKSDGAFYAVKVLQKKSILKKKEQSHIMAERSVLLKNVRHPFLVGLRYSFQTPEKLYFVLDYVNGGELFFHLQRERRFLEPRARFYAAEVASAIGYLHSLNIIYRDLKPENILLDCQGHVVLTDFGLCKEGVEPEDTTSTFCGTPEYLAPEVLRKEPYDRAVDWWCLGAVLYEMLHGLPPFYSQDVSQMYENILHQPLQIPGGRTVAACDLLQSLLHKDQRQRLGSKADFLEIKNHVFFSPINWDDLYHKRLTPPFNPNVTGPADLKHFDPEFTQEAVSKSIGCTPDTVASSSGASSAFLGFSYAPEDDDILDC
RAC-beta serine/threonine-protein kinase (Homo sapiens), sequence (P31751 whole entry, the tested form may be a part): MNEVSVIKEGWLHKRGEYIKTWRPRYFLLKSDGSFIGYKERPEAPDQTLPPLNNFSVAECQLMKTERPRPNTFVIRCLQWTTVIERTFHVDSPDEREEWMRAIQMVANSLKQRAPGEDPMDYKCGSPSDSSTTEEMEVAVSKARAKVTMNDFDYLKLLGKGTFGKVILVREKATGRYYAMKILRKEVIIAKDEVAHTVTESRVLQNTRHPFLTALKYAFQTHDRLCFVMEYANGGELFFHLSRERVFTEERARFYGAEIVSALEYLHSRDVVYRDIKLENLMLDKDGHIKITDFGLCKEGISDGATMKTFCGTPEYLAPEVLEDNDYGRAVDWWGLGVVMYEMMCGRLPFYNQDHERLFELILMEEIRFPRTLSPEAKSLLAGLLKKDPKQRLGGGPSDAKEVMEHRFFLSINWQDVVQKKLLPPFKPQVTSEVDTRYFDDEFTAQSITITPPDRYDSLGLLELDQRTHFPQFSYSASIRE
Serine/threonine-protein kinase DCLK2 (Homo sapiens), sequence (Q8N568 whole entry): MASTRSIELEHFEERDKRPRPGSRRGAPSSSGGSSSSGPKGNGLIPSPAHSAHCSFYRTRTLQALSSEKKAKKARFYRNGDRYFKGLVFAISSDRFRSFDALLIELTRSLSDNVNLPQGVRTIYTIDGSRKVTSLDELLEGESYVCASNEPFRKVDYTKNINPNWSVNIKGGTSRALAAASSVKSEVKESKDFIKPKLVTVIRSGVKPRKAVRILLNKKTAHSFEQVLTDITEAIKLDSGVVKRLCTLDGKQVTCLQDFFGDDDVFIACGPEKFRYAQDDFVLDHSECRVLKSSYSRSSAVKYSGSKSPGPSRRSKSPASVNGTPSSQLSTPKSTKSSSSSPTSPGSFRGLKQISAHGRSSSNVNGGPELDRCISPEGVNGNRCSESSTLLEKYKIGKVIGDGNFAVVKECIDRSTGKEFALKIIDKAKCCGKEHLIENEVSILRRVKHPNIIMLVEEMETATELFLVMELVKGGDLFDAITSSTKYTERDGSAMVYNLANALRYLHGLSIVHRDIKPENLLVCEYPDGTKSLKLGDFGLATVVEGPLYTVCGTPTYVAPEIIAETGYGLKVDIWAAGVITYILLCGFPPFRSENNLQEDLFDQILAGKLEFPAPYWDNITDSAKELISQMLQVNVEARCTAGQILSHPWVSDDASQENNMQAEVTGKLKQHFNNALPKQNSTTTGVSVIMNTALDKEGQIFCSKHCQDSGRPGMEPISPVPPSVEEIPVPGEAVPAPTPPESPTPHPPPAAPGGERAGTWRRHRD
NT-3 growth factor receptor (Homo sapiens), sequence (Q16288 32-839 limits assumed): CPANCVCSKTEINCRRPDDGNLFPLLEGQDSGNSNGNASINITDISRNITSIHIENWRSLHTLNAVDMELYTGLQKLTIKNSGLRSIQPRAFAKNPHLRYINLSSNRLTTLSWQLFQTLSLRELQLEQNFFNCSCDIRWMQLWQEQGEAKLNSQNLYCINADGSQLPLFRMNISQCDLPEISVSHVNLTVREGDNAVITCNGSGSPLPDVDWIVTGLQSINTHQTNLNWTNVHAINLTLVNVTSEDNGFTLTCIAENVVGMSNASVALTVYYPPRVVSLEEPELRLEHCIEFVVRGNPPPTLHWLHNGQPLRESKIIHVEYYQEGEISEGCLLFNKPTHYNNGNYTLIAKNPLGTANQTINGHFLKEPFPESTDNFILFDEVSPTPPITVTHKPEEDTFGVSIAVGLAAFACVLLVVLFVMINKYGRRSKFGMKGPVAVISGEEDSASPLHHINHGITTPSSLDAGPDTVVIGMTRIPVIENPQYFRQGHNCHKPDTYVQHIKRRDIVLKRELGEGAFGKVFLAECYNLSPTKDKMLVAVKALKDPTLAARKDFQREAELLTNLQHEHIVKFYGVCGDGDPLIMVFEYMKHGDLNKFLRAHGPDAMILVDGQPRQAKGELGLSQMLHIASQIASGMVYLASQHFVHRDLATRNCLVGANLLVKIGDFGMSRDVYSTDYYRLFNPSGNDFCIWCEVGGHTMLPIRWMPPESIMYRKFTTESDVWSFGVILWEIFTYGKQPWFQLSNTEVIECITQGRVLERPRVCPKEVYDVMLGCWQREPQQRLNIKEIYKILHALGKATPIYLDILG
Mitogen-activated protein kinase 15 (Homo sapiens), sequence (Q8TD08 whole entry): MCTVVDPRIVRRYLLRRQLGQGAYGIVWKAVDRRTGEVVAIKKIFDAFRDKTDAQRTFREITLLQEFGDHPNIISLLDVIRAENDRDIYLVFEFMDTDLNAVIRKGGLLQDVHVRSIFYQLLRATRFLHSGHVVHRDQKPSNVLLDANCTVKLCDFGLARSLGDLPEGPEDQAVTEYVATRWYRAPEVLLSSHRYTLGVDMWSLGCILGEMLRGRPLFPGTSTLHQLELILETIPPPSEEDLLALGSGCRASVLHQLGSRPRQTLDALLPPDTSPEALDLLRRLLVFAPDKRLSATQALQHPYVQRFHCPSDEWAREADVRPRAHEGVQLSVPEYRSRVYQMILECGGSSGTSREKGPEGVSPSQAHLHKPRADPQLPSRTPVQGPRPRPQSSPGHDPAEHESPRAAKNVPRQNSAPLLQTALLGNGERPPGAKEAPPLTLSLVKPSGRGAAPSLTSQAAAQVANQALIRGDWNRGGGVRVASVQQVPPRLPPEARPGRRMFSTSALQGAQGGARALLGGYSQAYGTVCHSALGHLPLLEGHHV
Bone morphogenetic protein receptor type-1B (Homo sapiens), sequence (O00238 whole entry): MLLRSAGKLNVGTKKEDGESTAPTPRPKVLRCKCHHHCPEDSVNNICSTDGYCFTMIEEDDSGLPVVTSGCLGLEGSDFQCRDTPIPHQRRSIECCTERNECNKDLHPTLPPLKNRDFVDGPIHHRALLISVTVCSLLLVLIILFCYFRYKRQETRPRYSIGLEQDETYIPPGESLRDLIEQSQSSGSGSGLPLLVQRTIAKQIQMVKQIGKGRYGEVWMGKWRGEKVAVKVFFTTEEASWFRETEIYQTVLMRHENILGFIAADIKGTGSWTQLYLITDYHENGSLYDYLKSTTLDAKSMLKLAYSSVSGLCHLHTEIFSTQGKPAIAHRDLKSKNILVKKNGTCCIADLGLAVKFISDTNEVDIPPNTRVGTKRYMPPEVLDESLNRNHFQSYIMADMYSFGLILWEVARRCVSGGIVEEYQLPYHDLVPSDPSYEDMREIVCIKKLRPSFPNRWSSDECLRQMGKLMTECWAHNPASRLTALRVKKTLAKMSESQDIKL

CC(=O)Nc1c(C(C)=O)c(=O)n(C)c2nc(-c3ccc(Cl)cc3Cl)c(-c3ccc(Cl)cc3)cc12 [NAPHTHYRIDINONE]
residual activity [1]: 94% | residual activity [2]: 77% | residual activity [3]: 89% | residual activity [4]: 100% | residual activity [5]: 100% | residual activity [6]: 100% | residual activity [7]: 100% | residual activity [8]: 88% | residual activity [9]: 100% | residual activity [10]: 100% | residual activity [11]: 100% | residual activity [12]: 100% | residual activity [13]: 100% | residual activity [14]: 100% | residual activity [15]: 86% | residual activity [16]: 96% | residual activity [17]: 100% | residual activity [18]: 100% | residual activity [19]: 100% | residual activity [20]: 100% | residual activity [21]: 48% | residual activity [22]: 99% | residual activity [23]: 92% | residual activity [24]: 100% | residual activity [25]: 100% | residual activity [26]: 87% | residual activity [27]: 100% | residual activity [28]: 100% | residual activity [29]: 100% | residual activity [30]: 100% | residual activity [31]: 100% | residual activity [32]: 100% | residual activity [33]: 100% | residual activity [34]: 100% | residual activity [35]: 100% | residual activity [36]: 100% | residual activity [37]: 100% | residual activity [38]: 100% | residual activity [39]: 100% | residual activity [40]: 82% | residual activity [41]: 100% | residual activity [42]: 100% | residual activity [43]: 100% | inhibition [44]: 32.9% | inhibition [45]: 22.7%

CC(=O)c1c(NS(C)(=O)=O)c2cc(-c3ccc(Cl)cc3)c(-c3ccc(Cl)cc3Cl)nc2n(C)c1=O [MRL-CB1-NC]
residual activity [1]: 100% | residual activity [2]: 76% | residual activity [3]: 86% | residual activity [4]: 100% | residual activity [5]: 70% | residual activity [6]: 100% | residual activity [7]: 100% | residual activity [8]: 84% | residual activity [9]: 100% | residual activity [10]: 100% | residual activity [11]: 100% | residual activity [12]: 92% | residual activity [13]: 96% | residual activity [14]: 93% | residual activity [15]: 90% | residual activity [16]: 98% | residual activity [17]: 100% | residual activity [18]: 100% | residual activity [19]: 100% | residual activity [20]: 100% | residual activity [21]: 100% | residual activity [22]: 96% | residual activity [23]: 82% | residual activity [24]: 100% | residual activity [25]: 93% | residual activity [26]: 76% | residual activity [27]: 99% | residual activity [28]: 100% | residual activity [29]: 100% | residual activity [30]: 76% | residual activity [31]: 100% | residual activity [32]: 91% | residual activity [33]: 88% | residual activity [34]: 100% | residual activity [35]: 100% | residual activity [36]: 100% | residual activity [37]: 92% | residual activity [38]: 100% | residual activity [39]: 100% | residual activity [40]: 100% | residual activity [41]: 98% | residual activity [42]: 100% | residual activity [43]: 100% | inhibition [44]: 68.5% | inhibition [45]: 17.1%
